# Measurements as given in patent US10418127B2, “Method of formulating a skin-lightening composition” (The Procter & Gamble Company, priority 2012, dated 2019).
# What was measured:
# [1] = tested on: tert-Keratinocyte (tKC) cell line; experiment: C-map query with the composite skin tone benchmark signature; format: cell-based, human; conditions: composite signature of Niacinamide, Hexamidine, Sepiwhite and NAG
# Description: Individual experiments (referred to as batches) generally comprise 30 to 96 samples analyzed using Affymetrix GeneChip® technology platforms, containing 6 replicates of the vehicle control (e.g., DSMO), 2 replicate samples of a positive control that gives a strong reproducible effect in the cell type used, and samples of the test material/perturbagen. Replication of the test material is done in separate batches due to batch effects. In vitro testing was performed in 6-well plates to provide sufficient RNA for GeneChip® analysis (2-4 μg total RNA yield/well).
# Human telomerized keratinocytes (tKC) were obtained from the University of Texas, Southwestern Medical Center, Dallas, Tex. tKC cells were grown in EpiLife® media with 1× Human Keratinocyte Growth Supplement (Invitrogen, Carlsbad, Calif.) on collagen I coated cell culture flasks and plates (Becton Dickinson, Franklin Lakes, N.J.). Keratinocytes were seeded into 6-well plates at 20,000 cells/cm^2 24 hours before chemical exposure. Human skin fibroblasts (BJ cell line from ATCC, Manassas, Va.) were grown in Eagle's Minimal Essential Medium (ATCC) supplemented with 10% fetal bovine serum (HyClone, Logan, Utah) in normal cell culture flasks and plates (Corning, Lowell, Mass.). BJ fibroblasts were seeded into 6-well plates at 12,000 cells/cm^2 24 hours before chemical exposure. […]
# [2] = tested on: Chinese females, 25-55 years old with hyperpigmented spots; experiment: 9-week split-face, vehicle-controlled clinical skin tone benefit study; format: in vivo, human; conditions: 0.05% in SC-99 vehicle, vs vehicle
# Text: This Example provides evidence of the advantages of using composite signatures and illustrates clinical affirmation of the C-map model for predicting efficacy of skin-lightening agents. This Example supports embodiments related to composite signatures (as described at the end of Example 3). An illustrative “Skin Tone” Signature developed from a genomics study using a composite skin-lightening benchmark agent signature is derived from Niacinamide, Hexamidine, Sepiwhite, and NAG. The signature is used to query C-map and generate a list of potential skin-lightening agents. A top hit, Chlorhexidine Diactate (CD) is entered into clinical testing for confirmation of efficacy. The control for clinical efficacy is a 5% Niacinamide +1% Sepiwhite formulation in the control vehicle.
# Primary endpoints are changes in color spot area fraction (image analysis) and melanin spot area fraction (NC2) from baseline. Secondary endpoints are changes from baseline in L*a*b (color image analysis), mean melanin gray scale (NC2), and melanin evenness (NC2). Texture area fraction and pore area fraction are also evaluated to explore impact on other aspects relating to overall skin tone. […] Statistically significant superiority to the high efficacy benchmark skin active agent to vehicle performance is the clinical success criteria.
# Study Design: The experimental protocol included a 9-week (1-week preconditioning & 8-week treatment), randomized, double-blind, round robin, vehicle-controlled, split-face tone benefit study. The subject population included 330 Chinese females, 25-55 years old with hyperpigmented spots. 318 subjects completed the entire study. […] Olay Complete SPF 15 UV Moisturizing Lotion is concomitantly used during pre-conditioning and treatment. 0.5 g each test product per half-face (forehead to jaw line; ˜4 mg/cm^2) is dosed 2× a day (morning/evening). Color SAF and treatment area, Melanin SAF, gray scale, evenness by NC2, and additional measurement of Fine Lines and Wrinkle and Texture are by REAL 3.01A. Data collection points include baseline, and ends of weeks 4, 6 and 8. The tested hypothesis is that there is no difference in clinical endpoint versus the benchmark composition treatment. Study site is Kuntai Clinical Center, Beijing, China and study time frame is February 2010 (pre-conditioning) to April 2010.
# melanocyte = conditions: in vitro; cited from earlier work
# [3] = tested on: ultraviolet-induced skin pigmentation; conditions: Shimizu K. et al., Planta Med 2002; cited from earlier work
# tyrosinase = target: T1, tyrosinase (Homo sapiens, UniProt P14679); conditions: in vitro; cited from earlier work
# T1 sequence (P14679 19-529): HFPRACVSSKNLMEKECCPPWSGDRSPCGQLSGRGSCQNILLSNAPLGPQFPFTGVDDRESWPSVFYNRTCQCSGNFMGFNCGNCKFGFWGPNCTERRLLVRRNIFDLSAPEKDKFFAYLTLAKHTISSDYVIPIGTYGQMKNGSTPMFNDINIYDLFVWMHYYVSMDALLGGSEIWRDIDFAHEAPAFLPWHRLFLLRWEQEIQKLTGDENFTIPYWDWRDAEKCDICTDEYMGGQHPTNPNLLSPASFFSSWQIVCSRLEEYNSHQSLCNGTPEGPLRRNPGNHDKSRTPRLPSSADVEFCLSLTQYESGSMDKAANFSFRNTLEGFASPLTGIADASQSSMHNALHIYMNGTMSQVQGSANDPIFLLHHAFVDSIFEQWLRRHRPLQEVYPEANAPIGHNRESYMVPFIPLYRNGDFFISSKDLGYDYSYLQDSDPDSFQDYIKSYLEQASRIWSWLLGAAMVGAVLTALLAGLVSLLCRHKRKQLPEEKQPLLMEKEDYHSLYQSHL
# [4] = tested on: melanosome transfer from melanocytes to keratinocytes; conditions: in vitro; cited from earlier work
structure (smiles),measurement,setting,value
"CC(=O)O.CC(=O)O.NC(=N\CCCCCC/N=C(N)/N=C(\N)Nc1ccc(Cl)cc1)/N=C(\N)Nc1ccc(Cl)cc1 [CD, Chlorhexidine Diacetate]",connectivity to the tone composite benchmark signature query,[1],top connectivity hit
same,spot area fraction color test,"[2]; 2x a day, week 8",significantly fewer spots when compared to vehicle
same,Basal skin tone,[2]; week 8,demonstrated superiority
same,Pore area fraction,[2]; week 8,superior efficacy
same,Texture area fraction,[2]; week 8,superior efficacy
same,NC2 Melanin evenness test,[2]; weeks 6 and 8,superiority to the vehicle
same,spot area fraction NC2 test,[2]; weeks 6 and 8,significantly reduced fraction when compared to the vehicle
C=CCCCCCCCCC(=O)N[C@@H](Cc1ccccc1)C(=O)O [N-undecylenoyl-L-phenylalanine],binding of alpha-MSH to the melanocyte,melanocyte,inhibit biding of alpha-MSH to the melanocyte
COc1cc2oc(-c3ccc(O)cc3O)c(CC=C(C)C)c(=O)c2c(O)c1/C=C/C(C)C [artocarpin],skin-lightening efficacy,[3],some efficacy for skin-lightening
N[C@H]1C(O)O[C@H](CO)[C@@H](O)[C@@H]1O (some centres unmarked) [glucosamine],production of melanin,tyrosinase,reduces production of melanin by inhibiting activation of tyrosinase
NC(=O)c1cccnc1 [niacinamide],melanosome transfer,[4],inhibits melanosome transfer from melanocytes to keratinocytes
